“Also recorded” adds a separate entry of the source. Read-outs that look alike come from different tables or passages of the source.
Key:
CD4 [1] = assay: CD4 expression on HIV-1 chronically infected cells (flow cytometry); format: cell-based; details: 1 and 4 μg/ml, 3 days
Description: (§1) Each cell preparation was kept separately at a concentration of 1 and 4 μg/ml of each drug for 3 days. Infected and uninfected cells were suspended at a concentration of 10^6 /ml in phosphate buffered saline (PBS) containing 0.1% sodium azide. Triplicate aliquots of 100 μl were incubated separately with 20 μl Leu-3a (FITC) (Ortho (Becton Dickinson UK Ltd) or with 10 μl OKT4a (FITC) Diagnostic Systems). After 20 min at 22° C. the cells were washed twice with PBS and resuspended in 0.51% paraformaldehyde/PBS (Sigma). The preparations were fixed overnight at 4° C. and subsequently analysed by flow cytometry (FACScan, Becton Dickinson UK Ltd). The median channel fluorescence was recorded for each sample.

NDK strain of HIV-1 = assay: Giant cell assay: co-cultivation of HIV-1 chronically infected Molt 4 cells with non-infected Molt 4 cells; format: cell-based
Description: Method: A clone of the leukaemia T-cell line Molt 4, which expresses a very high level of CD4, was selected. This was infected with the highly cytopathic NDK strain of HIV-1^6 and a clone which is chronically infected with the virus but which readily replicates was selected. When these HIV-infected cells w ere co-cultivated with non-infected Molt 4 cells at a ratio of 100 non-infected:1 infected cell, very large giant cells were formed within 24 hours.
(§2) The effects of serum from healthy HIV-1 infected individuals and AIDS patients on giant cell formation was also examined. In addition the level of cytotoxicity and anti-HIV-1 activity of these substances was tested in an anti-HIV assay system which has been previously described^7. This enabled us to establish the anti-viral activity and cytotoxicity in parallel and to compare it to the effects of AZT on virus inhibition and cell division.

HIV-1 [2] = details: drug-containing medium replaced with growth medium alone, one week
Description: Method: Culture fluid was collected from:
1. chronically infected cells grown in growth medium;
3. chronically infected cells grown in 10 μg/ml of FK506 and for 1 week after removal of compound;
Each culture was titrated at serial ten-fold dilutions. Each dilution was used to infect Molt 4 cells in duplicate. The end point was recorded after 10 days.

HIV-2 = assay: Giant cell / cytopathic effect on co-cultivation of HIV-2 chronically infected cells with uninfected cells; format: cell-based; details: co-cultivation in the presence of the drugs, within 24 hours
[3] = system: non-infected Molt 4 cells; assay: Growth-rate of non-infected T-cells; format: cell-based
Description: (§3) Method: Molt 4 cells and the clone of the same cells, chronically infected with HIV-1, were seeded separately at an approximate concentration of 5×10^4 cells/ml. Five separate cultures of each of the two cell populations were seeded. […] At 24 hour intervals samples were taken for cell counting. Feeding with or without the corresponding chemical was done after the fourth day. AZT was also used in parallel.

HIV-1 [4] = assay: Anti-HIV assay system (HIV-1 replication, cytotoxicity in parallel); format: cell-based
Description: as §2

CD4 [5] = assay: CD4 expression on non-infected cells (flow cytometry); format: cell-based; details: 1 and 4 μg/ml, 3 days
Description: as §1

[6] = system: Molt 4 cells chronically infected with HIV-1; assay: Growth-rate of chronically infected T-cells; format: cell-based
Description: as §3

C=CC[C@@H]1/C=C(\C)C[C@H](C)C[C@H](OC)[C@H]2O[C@@](O)(C(=O)C(=O)N3CCCC[C@H]3C(=O)O[C@H](/C(C)=C/[C@@H]3CC[C@@H](O)[C@H](OC)C3)[C@H](C)[C@@H](O)CC1=O)[C@H](C)C[C@@H]2OC [FK506, 16-Allyl-1, 14-dihydroxy-12-[2-(4-hydroxy-3-methoxycyclohexyl)-1-methylvinyl]-23,25-dimethoxy-13,19,21,27-tetramethyl-11,28-dioxa-4-azatricyclo-[22,3,1,0^4,9]octacos-18-ene-2,3,10,16-tetrone]
CD4 expression on chronically HIV-1 infected Molt 4 cells (CD4 [1]): does not seem to be affected
delay of cytopathic effect / giant cell formation (anti-HIV-1 activity) (NDK strain of HIV-1; HIV-1, co-cultivation in the presence of the drugs, within 24 hours): delay of the cytopathic effect; also recorded: delay in the formation of giant cells
giant cell formation after drug pre-treatment of infected cells (NDK strain of HIV-1; chronically infected cells cultured one week with drug, washed, co-cultivated without drug): a few small giant cells could be seen during the first 24 hours
onset of cytopathic effects, in particular giant cell formation (NDK strain of HIV-1; chronically infected cells grown with drug for five days and then washed): inhibition of and a delay in the onset of cytopathic effects
giant cell formation (NDK strain of HIV-1; co-cultured in the presence of 10 μg/ml, examined after 24 hours): only a few small giant cells
production of infectious HIV-1 after drug removal (HIV-1 [2]): increase in the production of infectious HIV-1 to the levels which preceded the drug treatment
delay of cytopathic effect / giant cell formation (anti-HIV-2 activity) (HIV-2): delay of the cytopathic effect; also recorded: delay in the formation of giant cells
cell division of uninfected cells at 4 μg/ml [3]: did not appear to slow cell division
growth of uninfected cells, first five days [3]: did not affect the growth of uninfected cells
number of uninfected cells after day five at 10 μg/ml [3]: only a marginal increase in the number of cells
HIV-1 replication at 1 μg (HIV-1 [4]; at 1 μg): only a partial decrease
antiviral activity at non-toxic concentrations (HIV-1 [4]; non-toxic concentrations): marginal antiviral activity
inhibition of HIV-1 replication (comparison with AZT) (HIV-1 [4]; various concentrations, FIG. 1): far lower than that of AZT
CD4 expression on uninfected Molt 4 cells (CD4 [5]): expressed a high level of CD4
effect on growth / replication of HIV-1 chronically infected cells [6]: inhibited the replication; also recorded: inhibit the growth of the chronically infected cells
cell division of chronically infected cells at 4 μg/ml ([6]; 4 μg/ml): significant reduction in cell division
number of chronically infected cells at 10 μg/ml ([6]; 10 μg/ml, after a week in culture): only a marginal increase in the number of cells
effect on growth / replication of HIV-1 chronically infected cells ([6]; listed as FK): significantly inhibited the replication

Reference: patent publication US5801144A, “Use of a compound for the manufacture of a medicament for the treatment of HIV infection” (priority 1992, dated 1998)
